Legend:
[1] = target: T1, HCMV polymerase (Human cytomegalovirus, UniProt P08546); test: HCMV polymerase scintillation proximity assay (SPA); format: biochemical; settings: 3H-dTTP incorporation
T1 construct: made in house; host or cells: recombinant baculovirus-infected SF-9 cells
Protocol: (§1) The HCMV polymerase assay is performed using a scintillation proximity assay (SPA) as described in several references, such as N.D. Cook, et al., Pharmaceutical Manufacturing International, pages 49-53 (1992); K. Takeuchi, Laboratory Practice, September issue (1992); U.S. Pat. No. 4,568,649 (1986); which are incorporated by reference herein. Reactions are performed in 96-well plates. The assay is conducted in 100 μl volume with 5.4 mM HEPES (pH 7.5), 11.7 mM KCl, 4.5 mM MgCl2, 0.36 mg/ml BSA, and 90 nM ^3H-dTTP. Assays are run with and without CHAPS, (3-[(3-cholamidopropyl)-dimethylammonio]-1-propane-sulfonate) at a final concentration of 2 mM. HCMV polymerase is diluted in enzyme dilution buffer containing 50% glycerol, 250 mM NaCl, 10 mM HEPES (pH 7.5), 100 μg/ml BSA, and 0.01% sodium azide. The HCMV polymerase, which is expressed in recombinant baculovirus-infected SF-9 cells and purified according to literature procedures, is added at 10% (or 10 μl) of the final reaction volume, i.e., […]. Compounds are diluted in 50% DMSO and 10 μl are added to each well. Control wells contain an equivalent concentration of DMSO. Unless noted otherwise, reactions are initiated via the addition of 6 nM biotinylated poly(dA)-oligo(dT) template/primer to reaction mixtures containing the enzyme, substrate, and compounds of interest. Plates are incubated in a 25 C or 37 C H2O bath and terminated via the addition of 40 μl/reaction of 0.5 M EDTA (pH 8) per well. Reactions are terminated within the time-frame during which substrate incorporation is linear and varied depending upon the enzyme and conditions used, i.e., 30 min. for HCMV polymerase. Ten μl of streptavidin-SPA beads (20 mg/ml in PBS/10% glycerol) are added following termination of the reaction. Plates are incubated 10 min. at 37 C, then equilibrated to room temperature, and counted on a Packard Topcount. Linear regressions are performed and IC50's are calculated using computer software. A modified version of the above HCMV polymerase assay is performed as described above, but with the following changes: Compounds are diluted in 100% DMSO until final dilution into assay buffer. In the previous assay, compounds are diluted in 50% DMSO. 4.5 mM dithiotherotol (DTT) is added to the polymerase buffer.

[2] = target: VZV polymerase (Varicella-zoster virus, UniProt P09252); test: VZV polymerase assay (Table 1); format: biochemical
VZV polymerase, sequence (P09252 whole entry): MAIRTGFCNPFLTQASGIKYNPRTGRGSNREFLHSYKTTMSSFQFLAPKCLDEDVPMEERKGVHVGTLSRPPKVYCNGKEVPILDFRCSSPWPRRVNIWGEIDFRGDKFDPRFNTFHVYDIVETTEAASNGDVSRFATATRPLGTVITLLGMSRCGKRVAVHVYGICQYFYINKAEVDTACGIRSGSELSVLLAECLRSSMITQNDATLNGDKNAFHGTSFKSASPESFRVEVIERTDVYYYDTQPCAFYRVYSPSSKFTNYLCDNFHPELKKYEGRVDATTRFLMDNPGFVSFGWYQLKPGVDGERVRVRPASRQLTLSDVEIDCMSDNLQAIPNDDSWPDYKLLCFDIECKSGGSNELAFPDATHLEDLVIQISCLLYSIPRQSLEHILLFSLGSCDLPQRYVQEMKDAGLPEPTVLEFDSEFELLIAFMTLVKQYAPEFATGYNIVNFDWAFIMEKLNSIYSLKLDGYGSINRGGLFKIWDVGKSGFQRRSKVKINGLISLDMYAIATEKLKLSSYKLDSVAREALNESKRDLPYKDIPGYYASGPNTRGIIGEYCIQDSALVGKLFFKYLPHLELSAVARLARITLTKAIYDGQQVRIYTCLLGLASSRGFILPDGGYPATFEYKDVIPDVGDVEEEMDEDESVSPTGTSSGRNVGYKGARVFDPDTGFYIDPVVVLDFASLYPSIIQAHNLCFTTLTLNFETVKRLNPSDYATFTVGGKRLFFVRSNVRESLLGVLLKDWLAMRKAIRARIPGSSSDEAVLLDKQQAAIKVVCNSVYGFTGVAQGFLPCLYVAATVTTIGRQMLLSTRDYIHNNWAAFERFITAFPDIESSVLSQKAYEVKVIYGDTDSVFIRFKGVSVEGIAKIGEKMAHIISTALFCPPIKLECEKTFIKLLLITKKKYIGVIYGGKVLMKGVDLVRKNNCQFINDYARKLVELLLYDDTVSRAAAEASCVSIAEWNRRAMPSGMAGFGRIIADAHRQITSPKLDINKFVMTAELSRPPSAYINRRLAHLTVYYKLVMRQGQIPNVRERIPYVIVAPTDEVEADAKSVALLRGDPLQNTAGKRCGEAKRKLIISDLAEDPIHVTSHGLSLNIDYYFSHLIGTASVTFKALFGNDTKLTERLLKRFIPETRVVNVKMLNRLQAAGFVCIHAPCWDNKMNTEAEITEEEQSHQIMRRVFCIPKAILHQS
Protocol: [Worded in the source for another target; this target is reported under the same test.] as §1

[3] = target: HSV polymerase (Human herpesvirus 1, UniProt P04293); test: HSV polymerase assay (Table 1); format: biochemical
HSV polymerase, sequence (P04293 whole entry): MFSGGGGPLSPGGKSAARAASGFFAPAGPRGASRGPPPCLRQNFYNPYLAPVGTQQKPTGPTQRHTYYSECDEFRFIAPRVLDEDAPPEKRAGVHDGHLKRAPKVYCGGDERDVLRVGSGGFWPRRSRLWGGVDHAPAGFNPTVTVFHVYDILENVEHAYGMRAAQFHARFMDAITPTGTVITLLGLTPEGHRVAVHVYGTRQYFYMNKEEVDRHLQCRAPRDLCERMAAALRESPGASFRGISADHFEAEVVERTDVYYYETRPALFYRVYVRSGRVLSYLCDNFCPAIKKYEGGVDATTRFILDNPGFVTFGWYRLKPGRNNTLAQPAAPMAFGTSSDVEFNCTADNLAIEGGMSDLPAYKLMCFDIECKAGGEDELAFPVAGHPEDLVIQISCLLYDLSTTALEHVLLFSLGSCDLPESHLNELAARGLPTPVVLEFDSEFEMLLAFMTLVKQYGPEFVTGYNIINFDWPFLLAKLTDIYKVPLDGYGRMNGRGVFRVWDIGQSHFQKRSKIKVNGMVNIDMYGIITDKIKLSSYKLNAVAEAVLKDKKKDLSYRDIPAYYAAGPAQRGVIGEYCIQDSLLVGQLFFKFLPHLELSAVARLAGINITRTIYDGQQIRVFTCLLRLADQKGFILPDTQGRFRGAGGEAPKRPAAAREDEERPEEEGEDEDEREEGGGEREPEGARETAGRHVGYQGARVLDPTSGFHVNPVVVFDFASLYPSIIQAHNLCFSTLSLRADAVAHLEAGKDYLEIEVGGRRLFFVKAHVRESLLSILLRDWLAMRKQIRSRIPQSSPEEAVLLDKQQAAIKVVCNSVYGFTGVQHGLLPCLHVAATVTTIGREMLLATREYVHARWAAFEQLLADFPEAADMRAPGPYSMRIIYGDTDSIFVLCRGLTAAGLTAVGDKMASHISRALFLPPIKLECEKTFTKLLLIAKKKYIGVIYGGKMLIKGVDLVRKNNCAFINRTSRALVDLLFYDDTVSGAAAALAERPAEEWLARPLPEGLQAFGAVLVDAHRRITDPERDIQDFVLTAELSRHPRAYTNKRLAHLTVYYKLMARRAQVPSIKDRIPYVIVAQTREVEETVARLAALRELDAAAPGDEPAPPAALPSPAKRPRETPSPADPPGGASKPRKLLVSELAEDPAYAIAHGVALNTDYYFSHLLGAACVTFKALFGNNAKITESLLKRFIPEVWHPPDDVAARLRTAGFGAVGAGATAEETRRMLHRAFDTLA
Protocol: [Worded in the source for another target; this target is reported under the same test.] as §1

T1 sequence (P08546 whole entry): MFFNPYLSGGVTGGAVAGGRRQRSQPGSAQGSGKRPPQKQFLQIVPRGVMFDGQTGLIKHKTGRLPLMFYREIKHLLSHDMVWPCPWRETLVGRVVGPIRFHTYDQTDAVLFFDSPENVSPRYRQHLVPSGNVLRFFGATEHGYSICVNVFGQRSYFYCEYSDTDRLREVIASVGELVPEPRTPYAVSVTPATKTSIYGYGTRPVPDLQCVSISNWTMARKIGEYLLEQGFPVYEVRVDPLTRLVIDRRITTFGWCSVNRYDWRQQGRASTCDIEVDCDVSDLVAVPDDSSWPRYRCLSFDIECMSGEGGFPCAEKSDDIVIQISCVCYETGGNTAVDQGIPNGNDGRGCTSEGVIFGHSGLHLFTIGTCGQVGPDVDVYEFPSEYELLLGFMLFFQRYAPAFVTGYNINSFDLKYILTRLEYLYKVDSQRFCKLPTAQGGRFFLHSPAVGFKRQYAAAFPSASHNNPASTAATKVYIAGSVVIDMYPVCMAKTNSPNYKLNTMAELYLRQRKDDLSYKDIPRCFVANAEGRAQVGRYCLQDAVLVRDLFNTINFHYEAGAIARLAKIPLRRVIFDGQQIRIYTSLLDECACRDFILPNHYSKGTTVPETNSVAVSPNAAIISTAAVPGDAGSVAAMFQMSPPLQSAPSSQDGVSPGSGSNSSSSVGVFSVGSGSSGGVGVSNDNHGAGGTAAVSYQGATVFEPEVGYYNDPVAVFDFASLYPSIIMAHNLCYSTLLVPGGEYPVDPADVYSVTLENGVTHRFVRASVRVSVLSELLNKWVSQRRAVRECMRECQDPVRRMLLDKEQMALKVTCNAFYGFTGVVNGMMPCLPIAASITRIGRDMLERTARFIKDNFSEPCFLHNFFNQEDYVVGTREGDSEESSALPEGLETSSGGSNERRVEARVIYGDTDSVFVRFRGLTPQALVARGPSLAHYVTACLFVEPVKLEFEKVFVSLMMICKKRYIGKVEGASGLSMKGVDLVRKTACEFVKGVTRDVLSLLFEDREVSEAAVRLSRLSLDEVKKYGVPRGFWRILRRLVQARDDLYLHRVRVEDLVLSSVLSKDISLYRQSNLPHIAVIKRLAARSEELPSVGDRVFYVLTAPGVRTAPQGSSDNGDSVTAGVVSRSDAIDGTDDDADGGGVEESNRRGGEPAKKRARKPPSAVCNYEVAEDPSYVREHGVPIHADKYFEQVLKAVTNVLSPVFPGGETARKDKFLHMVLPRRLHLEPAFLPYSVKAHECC

IC50 [1] [µM]	IC50 [2] [µM]	IC50 [3] [µM]	melting point [°C]	Structure (SMILES)
0.74	0.31	0.44	119 to 121	O=C(NCc1ccc(Cl)cc1)c1cn(-c2cccc(CO)c2)c2ccc(CN3CCOCC3)cc2c1=O [Example 17, N-(4-Chlorobenzyl)-1-(3-(hydroxymethyl)phenyl)-6-(4-morpholinylmethyl)-4-oxo-1,4-dihydro-3-quinolinecarboxamide]
0.57	0.29	0.59	145 to 148	O=C(NCc1ccc(Cl)cc1)c1cn(-c2cccc(C#CCO)c2)c2ccc(CN3CCOCC3)cc2c1=O [Example 20, N-(4-Chlorobenzyl)-1-(3-(3-hydroxy-1-propynyl)phenyl)-6-(4-morpholinylmethyl)-4-oxo-1,4-dihydro-3-quinolinecarboxamide]
1.08	0.48	0.98	115 to 118	O=C(NCc1ccc(Cl)cc1)c1cn(-c2cccc(CCCO)c2)c2ccc(CN3CCOCC3)cc2c1=O [Example 25, N-(4-Chlorobenzyl)-1-[3-(3-hydroxypropyl)phenyl]-6-(4-morpholinylmethyl)-4-oxo-1,4-dihydro-3-quinolinecarboxamide]

From US6653307B2, “1-aryl-4-oxo-1,4-dihydro-3-quinolinecarboxamides as antiviral agents” (Pharmacia & Upjohn Company, priority 2000, dated 2003)
